Test results from PubChem BioAssay (NCI).
“And” between values parts separate entries of the source, which are not always exact repeats. Equal entries are not always repeated.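 Tested at 5 concentrations; 48 h exposure; 96-well plates; endpoints linearly interpolated, else capped at highest concentration. Here, GI50 denotes the concentration required for 50% inhibition of growth. At the TGI there is no net growth.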

Experiments:
Experiment in all cases: NCI-60 cell line screen, 48 h
CAKI-1 renal = system: CAKI-1 renal
EKVX NSCLC = system: EKVX NSCLC
HCT-116 colon = system: HCT-116 colon
HT29 colon = system: HT29 colon
K-562 leukemia = system: K-562 leukemia
MALME-3M melanoma = system: MALME-3M melanoma
MDA-MB-231 breast = system: MDA-MB-231 breast
SK-MEL-2 melanoma = system: SK-MEL-2 melanoma
SNB-19 CNS = system: SNB-19 CNS
UACC-257 melanoma = system: UACC-257 melanoma

Row | Structure (SMILES) | GI50 (CAKI-1 renal) [µM] | TGI (CAKI-1 renal) [µM] | GI50 (EKVX NSCLC) [µM] | TGI (EKVX NSCLC) [µM] | GI50 (HCT-116 colon) [µM] | TGI (HCT-116 colon) [µM] | GI50 (HT29 colon) [µM] | TGI (HT29 colon) [µM] | GI50 (K-562 leukemia) [µM] | TGI (K-562 leukemia) [µM] | GI50 (MALME-3M melanoma) [µM] | TGI (MALME-3M melanoma) [µM] | GI50 (MDA-MB-231 breast) | TGI (MDA-MB-231 breast) | GI50 (SK-MEL-2 melanoma) [µM] | TGI (SK-MEL-2 melanoma) [µM] | GI50 (SNB-19 CNS) [µM] | TGI (SNB-19 CNS) [µM] | GI50 (UACC-257 melanoma) [µM] | TGI (UACC-257 melanoma) [µM]
1 | COc1ccc(-c2nn(-c3cccc(Cl)c3)cc2-c2cc(-c3cccs3)[nH]c(=S)n2)cc1 | 3.03 | 8.68 | 1.93 | 21.7 | 2.38 | 11.2 | 3.82 | 13 | 2.91 | > 100 | 3.49 | 15.8 | 3.52 µM | 26 µM | 2.87 | 6.9 | 4.93 | > 100 | 3.06 | 18
2 | CN(CCO)CC[C@H](CSc1ccccc1)Nc1ccc(S(=O)(=O)NC(=O)c2ccc(N3CCC([C@@H](O)c4ccccc4-c4ccc(Cl)cc4)CC3)cc2)cc1S(=O)(=O)C(F)(F)F |  | > 29.2 | 20.4 | > 100 | 2.26 | 6.8 | 7.45 | 60.6 | 3.4 | > 100 | 2.48 | 8.55 | 0.235 µM | 0.936 µM | 1.41 | 4.28 | 2.77 | 8.57 | 4.85 | 30.6
3 | C[C@@]1(C(=O)O)CCC[C@]2(C)C1CC[C@@]13CC(=O)[C@@](CO)(CC[C@]12O)C3 (stereo partly drawn) | > 100 | > 100 | > 100 | > 100 | > 100 | > 100 | > 100 | > 100 | > 100 | > 100 | 24.1 | > 100 | > 100 µM | > 100 µM | > 100 | > 100 | 90.7 | > 100 | > 100 | > 100
4 | CCOc1cccc(/C=N/N=C2\C(=O)Nc3c(Cl)cc(Cl)cc32)c1O |  | > 100 |  | > 100 |  | > 100 |  | > 100 |  | > 100 |  | > 100 |  | > 100 µM |  | > 100 |  | > 100 |  | > 100
5 | O=C(CCCCCCNC(=O)c1cnc(N(c2ccccc2)c2ccccc2)nc1)NO | 6.38 | 43.3 | 4.95 | > 100 | 2.07 | > 33.9 | 2.29 | > 35.4 | 2.47 | > 100 | 0.73 | 5.03 | 2.99 µM | 14.7 µM | 1.9 | 8.36 | 3.67 | 31.3 | 2.23 | 30.5
6 | C[C@H](NC(=O)[C@@H](C)N)[C@H](Oc1ccc2c(cnn2-c2ccc(F)cc2)c1)c1ccc2c(c1)OCCO2 | 1.09 | 4.79 | 1.04 | 12.1 | 1.87 | 3.73 | 1.87 | 3.84 | 1.98 | 4.7 | 1.5 | 3.09 | 1.93 µM | 4.69 µM | 1.91 | 3.92 | 3.29 | 12.4 | 1.94 | 3.61
7 | O=C1C(Cl)=C(Nc2cccc(Cl)c2)C(=O)N1Cc1ccc(Cl)cc1 | 0.919 | 13.9 | 6.78 | 23.7 | 0.442 | 6.53 | 0.758 | 31.3 | 0.858 | > 94.1 | 0.137 | 2.84 | 0.216 µM | 1.22 µM | 2.2 |  | 4.06 | 33 | 6.39 | 28.2
8 | CSC(=Nc1nnc(-c2ccc([N+](=O)[O-])cc2)s1)SC |  | 38.4 |  | > 100 |  | > 83.7 |  | > 100 |  | > 100 |  | > 100 |  | > 100 µM |  | > 91.6 |  | 63.2 |  | > 100
9 | CCN(Cc1ccc(Cl)cc1)c1ccc(CO)c(Cl)c1 | 0.563 | 7.45 | 12.4 | 29.1 | 0.129 | 3.77 | 3.12 | 13.5 | 1.87 | > 45.5 | 12.8 | 28.5 | 4.95 µM | 20.3 µM | 1.75 | 10.6 | 13.1 | 28.9 | 0.145 | 0.512
10 | COC(=O)c1ccc(-c2nc3cc(Cl)c(Cl)cc3nc2C#N)cc1 | > 100 | > 100 | > 100 | > 100 | > 100 | > 100 | > 100 | > 100 | > 100 | > 100 | > 100 | > 100 | > 100 µM | > 100 µM | > 100 | > 100 | > 100 | > 100 | > 100 | > 100
11 | COc1ccc(-c2cc3c(c4cc(OC)ccc24)C(=O)OC3=O)cc1 |  | > 100 |  | > 100 |  | > 100 |  | > 100 |  | > 100 |  | > 100 |  | > 100 µM |  | > 100 |  | > 100 |  | > 100
12 | CNC(=O)Nc1nc2ccc([N+](=O)[O-])cc2[nH]1 |  | > 100 |  | > 100 |  | > 100 |  | > 100 |  | > 100 |  | > 100 |  | > 100 µM |  | > 100 |  | > 100 |  | > 100
13 | O=C(O)CN(CC(=O)O)Cc1cc(C#Cc2ccc(C#Cc3ccccc3)cc2)cc(CN(CC(=O)O)CC(=O)O)n1 |  | 61.9 |  | > 86.8 |  | 39.9 |  | > 100 |  | > 67.5 |  | > 85.5 |  | 43 µM |  | > 73.7 |  | > 77 |  | > 89.1
14 | CC[C@@H]1c2c(C#N)ncn2-c2cnc(Nc3ccc(C(=O)NC4CCN(C5CCN(CC6CC6)CC5)CC4)cc3OC)nc2N1C1CCCC1 | 1.62 | 3.88 | 1.06 | 2.46 | 0.0313 | 1.19 | 0.036 | 0.135 | 0.0337 | 0.308 | 0.0853 | 1.85 | 0.0631 µM and 0.0382 µM | 1.31 µM and 0.219 µM | 0.0407 | 1.82 | 0.0668 | 2.05 | 0.0431 | 1.67
15 | CCOC(=O)N1CCN(/[N+]([O-])=N/Oc2ccc([N+](=O)[O-])cc2[N+](=O)[O-])CC1 | 0.521 | 1.96 | 12.6 | 32.6 | 0.929 | 3.66 | 0.322 | 15.7 | 0.153 | 3.72 | 1.59 | 4.05 | 1.99 µM | 7.08 µM | 7.08 | 25.9 | 6.68 | 20.7 | 2.27 | 7
16 | COc1ccc(C(=S)N2CCN(c3cccc(C)c3)CC2)cc1OC | 3.21 | > 100 | 7.05 | > 100 | 3.47 | > 100 | 3.3 | > 100 | 1.2 | > 100 | 3.34 | 84.4 | 5.85 µM | > 100 µM | 47.5 | > 100 | 6.61 | > 100 | 55.4 | > 100
17 | Oc1c(-c2nnc(-c3ccccc3Cl)o2)sc2nnc(-c3ccccc3)c(-c3ccccc3)c12 | 0.501 | 24.6 | 3.1 | 32.2 | 2.92 | 11.4 | 4.06 | 20.8 | 3.28 | > 100 | 4.22 | 33.1 | 4.08 µM | 40.1 µM | 3.23 | 15.7 | 4.37 | > 100 | 8.09 | 62.7
18 | O=C(Oc1cccc(F)c1OC(=O)c1cccc(O)c1)c1cccc(O)c1 | 7.47 | > 100 | 58.7 | > 100 | 20.2 | > 100 | 41.8 | > 100 | 38 | > 100 | > 100 | > 100 | > 100 µM | > 100 µM | > 100 | > 100 | 99.6 | > 100 | 39.8 | > 100
19 | CCOC(=O)Nc1ccc2c(c1)/C(=N\NC(N)=S)c1ccccc1-2 | 3.22 | 15.2 | 4.29 | 41.2 | 4.32 | 50 | 3.23 | 13 | 3.94 | > 44.8 | 9.23 | 33.4 | 3.48 µM | > 54.6 µM | 4.95 | 15.8 | 9.92 | > 100 | 3.55 | 12.7
20 | C=C(C)[C@@H]1CC[C@]2(C)CC[C@]3(C)[C@H](CC[C@@H]4[C@@]5(C)CC[C@H](O)C(C)(C)[C@@H]5CC[C@]43C)[C@@H]12 |  | > 100 |  | > 100 |  | > 100 |  | > 100 |  | > 68.8 |  | > 100 |  | > 100 µM |  | > 100 |  | > 62.8 |  | > 80.8
21 | C/C(=N\NC(=S)N1CC2CCC(CC2)C1)c1nccs1 |  | 14.7 |  | 11.9 |  | 13.4 |  | 15.9 |  | 9.9 |  | 13.9 |  | 19.9 µM |  | 15.7 |  | 15.1 |  | 6.06
22 | COc1ccc2[nH]cc(-c3ccc(-c4c[nH]c5ccc(OC)cc45)s3)c2c1 | 5.54 | 19 | 8.33 | 26.9 | 3.62 | 11.7 | 2.06 | 4.51 | 2.54 | 7.3 | 9.13 | 22.4 | 2.88 µM | 8.55 µM | 18.1 | 51 | 10.1 | 34.6 | 11.4 | > 46.5
